pIC50: −log10 of the molar value.
Assays:
[1] = molecular target: T1, GST-tagged Eg5 motor domain (Homo sapiens, UniProt P52732); experiment: ADP-Glo Eg5 assay (4.8 μM ATP); type: biochemical; details: preformed microtubules, 4.8 μM ATP (Table 4)
T1 construct: 4 nM GST-tagged Eg5 motor domain protein (Cytoskeleton, EG01); purchased Cytoskeleton EG01
T1 sequence (P52732 18-359 limits assumed): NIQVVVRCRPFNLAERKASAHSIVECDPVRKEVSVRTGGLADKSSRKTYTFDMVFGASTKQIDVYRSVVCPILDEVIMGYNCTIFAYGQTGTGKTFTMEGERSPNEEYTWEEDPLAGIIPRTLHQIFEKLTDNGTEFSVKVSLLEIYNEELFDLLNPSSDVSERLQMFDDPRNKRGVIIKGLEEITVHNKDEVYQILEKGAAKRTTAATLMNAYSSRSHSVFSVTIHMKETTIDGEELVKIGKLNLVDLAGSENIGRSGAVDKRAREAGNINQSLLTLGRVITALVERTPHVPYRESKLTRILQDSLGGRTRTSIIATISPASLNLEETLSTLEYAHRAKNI
In short: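 His-tagged full-length HSET (5 nM) or GST-Eg5 motor domain (4 nM), with 70 μg/mL paclitaxel-stabilised microtubules in HEPES pH 6.8 buffer, was preincubated with compound for 10 min. ATP was then added (3 or 500 μM for HSET, 4.8 μM for Eg5), followed by 80 min at 25 °C and ADP-Glo luminescence. IC50 was fitted with a four-parameter logistic.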

[2] = system: centrosome-amplified (4NCA) DLD1 cells; experiment: Multipolar spindle assay (4NCA cell line); type: cell-based, human
In short: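 4NCA cells came from 2N DLD1 treated 24 h with 2 μΜ DCB then released 24 h; 4N DLD1 used directly. After 3.5 h arrest with 8 μM pro-TAME, compounds were added with 8 μM MG-132; fixed cells stained for aurora A, pHH3 and DAPI, imaged, and percentage multipolar (>2 poles) mitoses scored.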

[3] = 15 μM, 4NCA DLD1 cells (Table 4)
[4] = 15 µM, 4NCA cells, supplementary CSV

Row | Compound | pIC50 [1] | % multipolarity above baseline @ 15 μM (4NCA cells) [2, 3] [%] | % multipolarity above baseline @ 15 μM (4NCA cells) [2, 4] [%] | increase in mitotic spindle multipolarity (4NCA) ([2]; 15 μM, centrosome-amplified (4NCA) DLD1 cell line) [%]
1 | CCCOC(=O)c1sc(NC(=O)C[C@H](CCCN(C)C)NC(=O)c2cccc(-c3noc(C)n3)c2)nc1C [Compound 36, Propyl (S)-2-(6-(Dimethylamino)-3-(3-(5-methyl-1,2,4-oxadiazol-3-yl)benzamido)hexanamido)-4-methylthiazole-5-carboxylate] | < 3.70 | 15 | 15 | 
2 | CCCOC(=O)c1sc(NC(=O)CCNC(=O)c2cccc(-c3noc(C)n3)c2)nc1C [Compound 32, Propyl 4-Methyl-2-(3-(3-(5-methyl-1,2,4-oxadiazol-3-yl)benzamido)propanamido)thiazole-5-carboxylate] | < 3.70 | 21 | 21 | 21
3 | CCCOC(=O)c1sc(NC(=O)C[C@H](CCCNC)NC(=O)c2cccc(-c3noc(C)n3)c2)nc1C [Compound 35, Propyl (S)-4-Methyl-2-(3-(3-(5-methyl-1,2,4-oxadiazol-3-yl)benzamido)-6-(methylamino)hexanamido)thiazole-5-carboxylate] | < 3.70 | 11 | 11 | 
